Assay results published in patent US6063612A, “Antiviral reagents based on RNA-binding proteins” (priority 1991, dated 2000).

Assays:
[1] = test system: HIV-1 TAR RNA; assay: RNA cleavage reaction, HIV-1 TAR substrate; assay type: biochemical; conditions: 40 μM, not bound to RNA-binding protein (control)
Experimental: The above described polypeptides were tested for their ability to cleave RNA substrates which contained cognate binding sites. Typically, RNA target molecules containing the binding sites were 5'-end-labeled, purified on denaturing polyacrylamide gels, and annealed for use as substrates for cleavage (Example 2). A typical cleavage reaction contained 10^3 cpm of end-labeled RNA and 40-100 ng of polypeptide. Example 4A describes RNA cleavage reactions utilizing the TAT24C-phen polypeptide. The target RNA was incubated with TAT24C-phen at 25° C. for 10 min before the cleavage was initiated by adding CuSO4 and mercaptopropionic acid. After incubating for a given period of time, the reaction was stopped by the addition of 2,9-dimethyl-1,10-phenanthroline. RNAs were then isolated and analyzed on denaturing 15% sequencing gels. […] This is an expected site of cleavage based on binding of the polypeptide at the three-nucleotide bulge. A possible secondary cleavage site may be due to flexibility of the phenothroline-containing protein of the polypeptide, allowing it to reach to stem on the other side of the binding site.
Cleavage reactions using the polypeptide-cleaving reagents of the present invention were typically performed as follows. […]
RNAs from all reactions were ethanol precipitated and analyzed on a denaturing (8.3 M urea) 15% polyacrylamide gel. […]

[2] = test system: wild-type TAR (wt-TAR) site; conditions: RNA containing the TAR site; cited from earlier work
[3] = test system: HIV-1 LTR-linked gene expression; conditions: TAT protein taken up by cells; cited from earlier work

Q: With Cu(II)-1,10-phenanthroline as the molecule, how does the “cleavage pattern on HIV-1 TAR by free Cu(II)-phenanthroline” value [1] read?
A: Its value is “cleaves everywhere, but the unpaired bases at the loop (especially G32) and the bulge are most reactive”.

Q: For “synthetic 14-residue polypeptide: synthetic polypeptide spanning the basic region, amino acid residues 48-61 of the TAT protein (GRKKRRQRRRAHQN; UniProt P04608 48-61, looked up, fragment)”, which “binding to TAR-RNA (in words)” value [2] is on record?
A: The value was “bound TAR-RNA as well”.

B1: TAT protein: HIV-1 encoded 86 amino acid transactivator protein (protein)
chain: MEPVDPRLEPWKHPGSQPKTACTNCYCKKCCFHCQVCFITKALGISYGRKKRRQRRRPPQGSQTHQVSLSKQPTSQSRGDPTGPKE
Q: Which “effect on HIV-1 LTR-linked gene expression” value [3] does the source give for B1 here?
A: Its value is “specifically activates HIV-1 LTR-linked gene expression”.
